Test results: ChEMBL document CHEMBL1221345, “Cytotoxic flavonoids from the leaves of Cryptocarya chinensis” (J Nat Prod, 2010)
pIC50: −log10 of the molar value. *1 amine or outer side, *2 acyl side, *3 side chain or, on linkers, in order; H or OH if unused. Where a SMILES comes first, the peptide text is derived from it. Bridges are numbered along the chain shown (N, C = ends). Roman numbers before positions name the chains, in order. [ ]: non-standard residue; d: D form. Actinocin(1to9) = Cc1c2oc3c(C)ccc(C(=O)[*:2])c3nc-2c(C(=O)[*:1])c(N)c1=O; NMeV = CN[C@H](C(=O)O)C(C)C; Sar = CNCC(=O)O

Assays:
Assay type in all cases: functional, cell-based
[1] = system: NCI-H460; test: Cytotoxicity against human NCI-H460 cells after 72 hrs by MTS reduction assay; details: NCI-H460, 72 h
[2] = system: MCF7; test: Cytotoxicity against human MCF7 cells after 72 hrs by MTS reduction assay; details: MCF7, 72 h
[3] = system: SF-268; test: Cytotoxicity against human SF268 cells after 72 hrs by MTS reduction assay; details: SF-268, 72 h
[4] = system: KB; test: Cytotoxicity against human KB cells

| SMILES | pIC50 [1] | pIC50 [2] | pIC50 [3] | pIC50 [4] |
| --- | --- | --- | --- | --- |
| COc1cc(O)c2c(c1)O[C@H](c1ccccc1)CC2=O [PINOSTROBIN] | < 4.30 | < 4.30 | < 4.30 | – |
| O=C1C[C@H]2C3=C(C[C@H](O)[C@H]2O1)O[C@H](c1ccccc1)CC3=O [CRYPTOCHINONE B] | < 4.30 | < 4.30 | < 4.30 | – |
| COc1cc(C=O)ccc1O [VANILLIN] | < 4.30 | < 4.30 | < 4.30 | – |
| CO[C@H]1CC2=C(C(=O)C[C@@H](c3ccccc3)O2)[C@@H]2CC(=O)O[C@H]12 [7-O-METHYLCRYPTOCHINONE B] | < 4.30 | < 4.30 | < 4.30 | – |
| O=C1C[C@@H]2C3=C(C[C@H](O)[C@@H]2O1)O[C@H](c1ccccc1)CC3=O [CRYPTOCHINONE A] | < 4.30 | < 4.30 | < 4.30 | – |
| CC(C)=CCC/C(C)=C/CC/C(C)=C/CC/C=C(\C)CC/C=C(\C)CCC=C(C)C | < 4.30 | < 4.30 | < 4.30 | – |
| COc1cc(O)c2c(=O)c(OC)c(-c3ccccc3)oc2c1 | < 4.30 | < 4.30 | < 4.30 | – |
| CO[C@@H]1CC2=C(C(=O)CC(c3ccccc3)O2)[C@H]2CC(=O)O[C@H]21 (stereo not given in full) | < 4.30 | < 4.30 | < 4.30 | – |
| O=C1C[C@@H]2C3=C(C=C[C@@H]2O1)O[C@@H](c1ccccc1)CC3=O [CRYPTOCARYANONE A] | 5.37 | 5.29 | 5.30 | 5.60 |
| COC(=O)C[C@H]1CC=CC(=O)/C1=C(O)/C=C/c1ccccc1 [INFECTOCARYONE] | 4.96 | 4.61 | 5.43 | 5.77 |
| CO[C@H]1CC2=C(C(=O)C[C@@H](c3ccccc3)O2)[C@H]2CC(=O)O[C@@H]12 [7-O-METHYLCRYPTOCHINONE A] | < 4.30 | < 4.30 | < 4.30 | – |
| COc1cc(O)c2c(=O)c(OC)c(-c3ccccc3)oc2c1OC | < 4.30 | < 4.30 | < 4.30 | – |
| COc1c(O)ccc(C(=O)/C=C/c2ccccc2)c1O [LARREIN] | < 4.30 | < 4.30 | < 4.30 | – |
| COc1cc2oc(-c3ccccc3)cc(=O)c2c(O)c1OC [MOSLOFLAVONE] | < 4.30 | < 4.30 | < 4.30 | – |
| CC1=C(C)C(=O)C(CC[C@](C)(O)CCC[C@H](C)CCC[C@H](C)CCCC(C)C)=C(C)C1=O | 4.43 | < 4.30 | < 4.30 | – |
| Cc1c2oc3c(C)ccc(C(=O)N[C@@H]4C(=O)N[C@H](C(C)C)C(=O)N5CCC[C@H]5C(=O)N(C)CC(=O)N(C)[C@@H](C(C)C)C(=O)O[C@@H]4C)c3nc-2c(C(=O)N[C@@H]2C(=O)N[C@H](C(C)C)C(=O)N3CCC[C@H]3C(=O)N(C)CC(=O)N(C)[C@@H](C(C)C)C(=O)O[C@@H]2C)c(N)c1=O [DACTINOMYCIN] (I: T[dV]P[Sar][NMeV] / II: T[dV]P[Sar][NMeV]; ester I:1-I:C, II:1-II:C; linker I:N-II:N via Actinocin(1to9)) | 8.10 | 6.99 | 7.80 | – |
